Measured values published in PubChem BioAssay AID248 (DTP/NCI, 2004).
Where “and” joins values, the source holds several entries; their conditions need not be identical. Identical values can stand only once. Toxic doses and inconclusive results are not listed. No stated cut-off is given here; in the data, active means T/C of 150% or more; inactive means T/C below 125%. Square brackets hold non-standard residues; d marks the D form. Peptide text beside a SMILES is read from it. ξ: configuration not given here. ξK = NCCCCC(N)C(=O)O

Tested on: L1210 leukemia ip in BDF1 mice, survival T/C
Assay: NCI In Vivo Anticancer Drug Screen. Data for tumor model L1210 Leukemia (intraperitoneal) in B6D2F1 (BDF1) mice
Conditions: endpoint: mean survival time, higher = longer survival
Method in brief: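 In this screen, tumor-bearing mice given compound are compared to those given vehicle, and their survival values are reported as a treated-to-control quotient.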

[1] = dose: 100.0 mg/kg/injection, schedule: Q01DX001 (ip), vehicle: carboxymethylcellulose (CMC)
[2] = dose: 100.0 mg/kg/injection, schedule: Q04DX003 (ip), vehicle: Klucel (hydroxypropylcellulose) (HPC)
[3] = dose: 200.0 mg/kg/injection, schedule: Q01DX001 (ip), vehicle: carboxymethylcellulose (CMC)
[4] = dose: 200.0 mg/kg/injection, schedule: Q04DX003 (ip), vehicle: Klucel (hydroxypropylcellulose) (HPC)
[5] = dose: 400.0 mg/kg/injection, schedule: Q01DX001 (ip), vehicle: carboxymethylcellulose (CMC)
[6] = dose: 100.0 mg/kg/injection, schedule: Q01DX001 (ip), vehicle: saline
[7] = dose: 200.0 mg/kg/injection, schedule: Q01DX001 (ip), vehicle: saline
[8] = dose: 400.0 mg/kg/injection, schedule: Q01DX001 (ip), vehicle: saline
[9] = dose: 100.0 mg/kg/injection, schedule: Q01DX001 (ip), vehicle: Klucel (hydroxypropylcellulose) (HPC)
[10] = dose: 200.0 mg/kg/injection, schedule: Q01DX001 (ip), vehicle: Klucel (hydroxypropylcellulose) (HPC)
[11] = dose: 400.0 mg/kg/injection, schedule: Q01DX001 (ip), vehicle: Klucel (hydroxypropylcellulose) (HPC)
[12] = dose: 37.5 mg/kg/injection, schedule: Q04DX003 (ip), vehicle: saline
[13] = dose: 75.0 mg/kg/injection, schedule: Q04DX003 (ip), vehicle: saline
[14] = dose: 150.0 mg/kg/injection, schedule: Q04DX003 (ip), vehicle: saline
[15] = dose: 50.0 mg/kg/injection, schedule: Q01DX001 (ip), vehicle: saline

Measured: T/C

CCN(CC)C(=O)Nc1ccc([N+](=O)[O-])cc1
inactive: [1] 97 % of control | [2] 109 % of control | [3] 101 % of control | [4] 96 % of control | [5] 97 % of control | dose: 400.0 mg/kg/injection, schedule: Q04DX003 (ip), vehicle: Klucel (hydroxypropylcellulose) (HPC) 107 % of control

NCCCCC(NC(=O)CN)C(=O)O (centres undefined) (H-Gly-[ξK]-OH)
inactive: [6] 101 % of control | [7] 103 % of control | [8] 95 % of control

O=c1c2ccccc2n2nnc3cccc1c32
inactive: [9] 97 % of control and 88 % of control | [2] 91 % of control | [10] 87 % of control | [4] 95 % of control | [11] 92 % of control

CC(C)OC(=O)c1cc(C(=O)OC(C)C)cc(S(N)(=O)=O)c1
inactive: dose: 100.0 mg/kg/injection, schedule: Q01DX001 (ip), vehicle: other 106 % of control | dose: 200.0 mg/kg/injection, schedule: Q01DX001 (ip), vehicle: other 98 % of control | dose: 400.0 mg/kg/injection, schedule: Q01DX001 (ip), vehicle: other 95 % of control

CCC(C)C(NC(=O)OCc1ccccc1)C(=O)ON1C(=O)CCC1=O (centres undefined)
inactive: dose: 100.0 mg/kg/injection, schedule: Q01DX009 (ip), vehicle: saline with Tween-80 94 % of control | dose: 200.0 mg/kg/injection, schedule: Q01DX009 (ip), vehicle: saline with Tween-80 96 % of control

Oc1ccccc1/C=N/c1nc2ccc(Cl)cc2s1.Oc1ccccc1/C=N/c1nc2ccc(Cl)cc2s1.[Zn]
inactive: [6] 90 % of control

O=S(=O)(O)NC1CCCCC1
inactive: dose: 25.0 mg/kg/injection, schedule: Q01DX009 (ip), vehicle: acetone 100 % of control | dose: 50.0 mg/kg/injection, schedule: Q01DX009 (ip), vehicle: acetone 100 % of control | dose: 100.0 mg/kg/injection, schedule: Q01DX009 (ip), vehicle: acetone 100 % of control | [8] 95 % of control | dose: 800.0 mg/kg/injection, schedule: Q01DX001 (ip), vehicle: saline 90 % of control | dose: 1200.0 mg/kg/injection, schedule: Q01DX001 (ip), vehicle: saline 86 % of control | dose: 1600.0 mg/kg/injection, schedule: Q01DX001 (ip), vehicle: saline 92 % of control

O=C(OC1CCC1)c1ccc(N=Nc2ccccc2)cc1
inactive: dose: 75.0 mg/kg/injection, schedule: Q04DX002 (ip), vehicle: Klucel (hydroxypropylcellulose) (HPC) 102 % of control | dose: 150.0 mg/kg/injection, schedule: Q04DX002 (ip), vehicle: Klucel (hydroxypropylcellulose) (HPC) 102 % of control | dose: 300.0 mg/kg/injection, schedule: Q04DX002 (ip), vehicle: Klucel (hydroxypropylcellulose) (HPC) 86 % of control

c1ccc(C(c2ccccc2)n2ccnc2)cc1
inactive: [12] 94 % of control | [13] 102 % of control | [14] 105 % of control

COc1ccc(COC(=O)c2cc([N+](=O)[O-])cc([N+](=O)[O-])c2)cc1
inactive: dose: 100.0 mg/kg/injection, schedule: Q01DX001 (ip), vehicle: saline with Tween-80 95 % of control | dose: 200.0 mg/kg/injection, schedule: Q01DX001 (ip), vehicle: saline with Tween-80 100 % of control | dose: 400.0 mg/kg/injection, schedule: Q01DX001 (ip), vehicle: saline with Tween-80 92 % of control

O=C(c1cccc2ccccc12)N(c1ccccc1)c1ccccc1
inactive: [2] 103 % of control

COc1[nH]c(=O)ncc1Br
inactive: [15] 105 % of control | [6] 103 % of control | [7] 109 % of control | [8] 103 % of control

CCC1(Sc2ncnc3c2ncn3C2OC(CO)C(O)C2O)C(=O)NC(=O)NC1=O (centres undefined)
inactive: [6] 114 % of control | [7] 111 % of control | [8] 120 % of control

CCCCCCCCCCN(CCCCCCCCCC)S(=O)(=O)c1ccc(OC)c([N+](=O)[O-])c1
inactive: dose: 75.0 mg/kg/injection, schedule: Q01DX001 (ip), vehicle: other 100 % of control | dose: 150.0 mg/kg/injection, schedule: Q01DX001 (ip), vehicle: other 93 % of control | dose: 300.0 mg/kg/injection, schedule: Q01DX001 (ip), vehicle: other 90 % of control

CCCCNS(=O)(=O)c1ccc(C(N)=S)cc1
inactive: [9] 111 % of control | [10] 106 % of control | [11] 103 % of control

CCCCCCCCCCCCOC(=O)c1cc(O)c(O)c(O)c1
inactive: dose: 75.0 mg/kg/injection, schedule: Q01DX001 (ip), vehicle: acetone 103 % of control

CCN(CC)CCC(CNc1c(C)cnc2cc(Cl)ccc12)c1ccc(Cl)cc1 (centres undefined)
inactive: dose: 100.0 mg/kg/injection, schedule: Q04DX003 (ip), vehicle: saline with Tween-80 100 % of control | dose: 200.0 mg/kg/injection, schedule: Q04DX003 (ip), vehicle: saline with Tween-80 100 % of control | dose: 400.0 mg/kg/injection, schedule: Q04DX003 (ip), vehicle: saline with Tween-80 94 % of control

C[n+]1cccc(C#N)c1
inactive: [12] 100 % of control | dose: 75.0 mg/kg/injection, schedule: Q01DX001 (ip), vehicle: saline 106 % of control | [13] 107 % of control | dose: 150.0 mg/kg/injection, schedule: Q01DX001 (ip), vehicle: saline 106 % of control | [14] 91 % of control

CCOC(=O)c1[nH]c2c(OCC)nc(OCC)nc2c1Br
inactive: [15] 106 % of control | [6] 112 % of control | [7] 104 % of control | [8] 95 % of control

CC1CC/C(=C\c2ccccc2)C(=O)/C1=C/c1ccccc1 (centres undefined)
inactive: dose: 25.0 mg/kg/injection, schedule: Q01DX009 (ip), vehicle: DMSO 92 % of control | dose: 50.0 mg/kg/injection, schedule: Q01DX009 (ip), vehicle: DMSO 94 % of control | dose: 100.0 mg/kg/injection, schedule: Q01DX009 (ip), vehicle: DMSO 94 % of control and 91 % of control | dose: 100.0 mg/kg/injection, schedule: Q04DX003 (ip), vehicle: DMSO 105 % of control | dose: 200.0 mg/kg/injection, schedule: Q01DX009 (ip), vehicle: DMSO 102 % of control | dose: 200.0 mg/kg/injection, schedule: Q04DX003 (ip), vehicle: DMSO 100 % of control | dose: 400.0 mg/kg/injection, schedule: Q04DX003 (ip), vehicle: DMSO 95 % of control

Oc1ccc2ccc(Cl)cc2c1
inactive: [1] 95 % of control | [3] 90 % of control | [5] 95 % of control

ON=C1CSSC1
inactive: dose: 1.0 mg/kg/injection, schedule: Q01DX009 (ip), vehicle: saline with Tween-80 97 % of control | dose: 1.56 mg/kg/injection, schedule: Q04DX003 (ip), vehicle: saline with Tween-80 97 % of control | dose: 2.0 mg/kg/injection, schedule: Q01DX009 (ip), vehicle: saline with Tween-80 97 % of control | dose: 3.12 mg/kg/injection, schedule: Q04DX003 (ip), vehicle: saline with Tween-80 106 % of control | dose: 4.0 mg/kg/injection, schedule: Q01DX009 (ip), vehicle: saline with Tween-80 101 % of control | dose: 6.25 mg/kg/injection, schedule: Q04DX003 (ip), vehicle: saline with Tween-80 101 % of control | dose: 8.0 mg/kg/injection, schedule: Q01DX009 (ip), vehicle: saline with Tween-80 104 % of control | dose: 12.5 mg/kg/injection, schedule: Q04DX003 (ip), vehicle: saline with Tween-80 89 % of control and 90 % of control

c1cc[c]([Sn]([c]2ccccc2)[c]2ccccc2)cc1.c1ccc([Si](c2ccccc2)c2ccccc2)cc1
inactive: dose: 64.0 mg/kg/injection, schedule: Q04DX002 (ip), vehicle: saline with Tween-80 86 % of control | dose: 160.0 mg/kg/injection, schedule: Q04DX002 (ip), vehicle: saline with Tween-80 86 % of control | dose: 400.0 mg/kg/injection, schedule: Q04DX002 (ip), vehicle: saline with Tween-80 86 % of control

CC1CC[N+]2(C)CCCC12 (centres undefined)
inactive: dose: 6.25 mg/kg/injection, schedule: Q01DX009 (ip), vehicle: saline 100 % of control | dose: 12.5 mg/kg/injection, schedule: Q01DX009 (ip), vehicle: saline 100 % of control

[Cl][Gd]([Cl])[Cl]
inactive: dose: 100.0 mg/kg/injection, schedule: Q04DX003 (ip), vehicle: saline 94 % of control | dose: 200.0 mg/kg/injection, schedule: Q04DX003 (ip), vehicle: saline 115 % of control | dose: 400.0 mg/kg/injection, schedule: Q04DX003 (ip), vehicle: saline 95 % of control
